Measured values: the supplement of paper PMC10883282
± gives the standard deviation of the averaged measurements.

Tests used:
Experiment in all cases: relative viability vs DMSO control (72 h) (fraction); higher = more viable cells
A204 = test system: A204
How it was run: (§1)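 Percent growth from ATPLite readings, averaged over up to triplicate wells, was used as relative viability. Sarcoma cell lines were seeded into 384-well plates for 80–90% confluence, dosed after 24 h, and kept 72 h at 37 °C, 5% CO2. Data were rescaled to a range where 1 is full and 0 is none.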

G401 = test system: G401
How it was run: as §1

SYO-1 = test system: SYO-1
How it was run: as §1

SW982 = test system: SW982
How it was run: as §1

SW1353 = test system: SW1353
How it was run: as §1

HT1080 = test system: HT1080
How it was run: as §1

KHOS-NP = test system: KHOS-NP
How it was run: as §1

SW684 = test system: SW684
How it was run: as §1

RD-ES = test system: RD-ES
How it was run: as §1

KHOS-240S = test system: KHOS-240S
How it was run: as §1

SK-ES-1 = test system: SK-ES-1
How it was run: as §1

SW872 = test system: SW872
How it was run: as §1

## COc1cc2ncnc(Nc3ccc(F)c(Cl)c3)c2cc1NC(=O)/C=C/CN1CCCCC1 [Dacomitinib]
A204; 0.00017 µM
  relative viability: 1.1 ± 0.037
A204; 0.00051 µM
  relative viability: 1.09 ± 0.05
A204; 0.00152 µM
  relative viability: 1.09 ± 0.031
A204; 0.00457 µM
  relative viability: 1.08 ± 0.029
A204; 0.01372 µM
  relative viability: 1.04 ± 0.017
A204; 0.04115 µM
  relative viability: 1.07 ± 0.064
A204; 0.1235 µM
  relative viability: 1.06 ± 0.025
A204; 0.3704 µM
  relative viability: 0.978 ± 0.043
A204; 1.111 µM
  relative viability: 0.751 ± 0.014
A204; 3.333 µM
  relative viability: 0.327 ± 0.06
A204; 10 µM
  relative viability: 0.0139 ± 0.0023
G401; 0.00017 µM
  relative viability: 1.02 ± 0.015
G401; 0.00051 µM
  relative viability: 1.01 ± 0.015
G401; 0.00152 µM
  relative viability: 1.03 ± 0.049
G401; 0.00457 µM
  relative viability: 1.03 ± 0.022
G401; 0.01372 µM
  relative viability: 1.01 ± 0.043
G401; 0.04115 µM
  relative viability: 0.999 ± 0.021
G401; 0.1235 µM
  relative viability: 1.02 ± 0.05
G401; 0.3704 µM
  relative viability: 0.997 ± 0.047
G401; 1.111 µM
  relative viability: 0.849 ± 0.032
G401; 3.333 µM
  relative viability: 0.548 ± 0.019
G401; 10 µM
  relative viability: 0.00623 ± 0.00065
SYO-1; 0.00017 µM
  relative viability: 1.02 ± 0.044
SYO-1; 0.00051 µM
  relative viability: 1.02 ± 0.037
SYO-1; 0.00152 µM
  relative viability: 1.01 ± 0.027
SYO-1; 0.00457 µM
  relative viability: 1.02 ± 0.051
SYO-1; 0.01372 µM
  relative viability: 1 ± 0.05
SYO-1; 0.04115 µM
  relative viability: 1.01 ± 0.057
SYO-1; 0.1235 µM
  relative viability: 0.986 ± 0.045
SYO-1; 0.3704 µM
  relative viability: 0.888 ± 0.029
SYO-1; 1.111 µM
  relative viability: 0.824 ± 0.013
SYO-1; 3.333 µM
  relative viability: 0.287 ± 0.027
SYO-1; 10 µM
  relative viability: -0.0103 ± 0.0036
SW982; 0.00017 µM
  relative viability: 1.05 ± 0.053
SW982; 0.00051 µM
  relative viability: 1.07 ± 0.043
SW982; 0.00152 µM
  relative viability: 1.08 ± 0.021
SW982; 0.00457 µM
  relative viability: 1.09 ± 0.056
SW982; 0.01372 µM
  relative viability: 1.08 ± 0.082
SW982; 0.04115 µM
  relative viability: 1.08 ± 0.028
SW982; 0.1235 µM
  relative viability: 1.04 ± 0.05
SW982; 0.3704 µM
  relative viability: 0.986 ± 0.044
SW982; 1.111 µM
  relative viability: 0.606 ± 0.012
SW982; 3.333 µM
  relative viability: 0.21 ± 0.0082
SW982; 10 µM
  relative viability: 0.0159 ± 0.0024
SW1353; 0.00017 µM
  relative viability: 1.06 ± 0.036
SW1353; 0.00051 µM
  relative viability: 1.05 ± 0.027
SW1353; 0.00152 µM
  relative viability: 1.02 ± 0.013
SW1353; 0.00457 µM
  relative viability: 0.9671 ± 0.0029
SW1353; 0.01372 µM
  relative viability: 0.927 ± 0.042
SW1353; 0.04115 µM
  relative viability: 0.884 ± 0.036
SW1353; 0.1235 µM
  relative viability: 0.8331 ± 0.0072
SW1353; 0.3704 µM
  relative viability: 0.764 ± 0.028
SW1353; 1.111 µM
  relative viability: 0.665 ± 0.07
SW1353; 3.333 µM
  relative viability: 0.401 ± 0.021
SW1353; 10 µM
  relative viability: 0.0104 ± 0.0012
HT1080; 0.00017 µM
  relative viability: 1.12 ± 0.029
HT1080; 0.00051 µM
  relative viability: 1.11 ± 0.044
HT1080; 0.00152 µM
  relative viability: 1.11 ± 0.025
HT1080; 0.00457 µM
  relative viability: 1.11 ± 0.016
HT1080; 0.01372 µM
  relative viability: 1.08 ± 0.028
HT1080; 0.04115 µM
  relative viability: 1.12 ± 0.051
HT1080; 0.1235 µM
  relative viability: 1.12 ± 0.033
HT1080; 0.3704 µM
  relative viability: 1.13 ± 0.021
HT1080; 1.111 µM
  relative viability: 1.15 ± 0.025
HT1080; 3.333 µM
  relative viability: 0.769 ± 0.047
HT1080; 10 µM
  relative viability: 0.0364 ± 0.0086
KHOS-NP; 0.00017 µM
  relative viability: 1.09 ± 0.029
KHOS-NP; 0.00051 µM
  relative viability: 1.09 ± 0.025
KHOS-NP; 0.00152 µM
  relative viability: 1.1 ± 0.019
KHOS-NP; 0.00457 µM
  relative viability: 1.09 ± 0.022
KHOS-NP; 0.01372 µM
  relative viability: 1.08 ± 0.024
KHOS-NP; 0.04115 µM
  relative viability: 1.086 ± 0.0098
KHOS-NP; 0.1235 µM
  relative viability: 1.08 ± 0.032
KHOS-NP; 0.3704 µM
  relative viability: 1.08 ± 0.03
KHOS-NP; 1.111 µM
  relative viability: 1.08 ± 0.015
KHOS-NP; 3.333 µM
  relative viability: 0.985 ± 0.044
KHOS-NP; 10 µM
  relative viability: 0.0233 ± 0.0027
SW684; 0.00017 µM
  relative viability: 1.22 ± 0.061
SW684; 0.00051 µM
  relative viability: 1.23 ± 0.039
SW684; 0.00152 µM
  relative viability: 1.208 ± 0.012
SW684; 0.00457 µM
  relative viability: 1.18 ± 0.017
SW684; 0.01372 µM
  relative viability: 1.18 ± 0.071
SW684; 0.04115 µM
  relative viability: 1.15 ± 0.036
SW684; 0.1235 µM
  relative viability: 1.22 ± 0.072
SW684; 0.3704 µM
  relative viability: 1.08 ± 0.077
SW684; 1.111 µM
  relative viability: 1.01 ± 0.049
SW684; 3.333 µM
  relative viability: 0.599 ± 0.03
SW684; 10 µM
  relative viability: -0.00213 ± 0.0063
RD-ES; 0.00017 µM
  relative viability: 1.02 ± 0.017
RD-ES; 0.00051 µM
  relative viability: 1.01 ± 0.03
RD-ES; 0.00152 µM
  relative viability: 1.01 ± 0.017
RD-ES; 0.00457 µM
  relative viability: 1.02 ± 0.025
RD-ES; 0.01372 µM
  relative viability: 1.02 ± 0.037
RD-ES; 0.04115 µM
  relative viability: 1.01 ± 0.013
RD-ES; 0.1235 µM
  relative viability: 0.992 ± 0.022
RD-ES; 0.3704 µM
  relative viability: 0.9359 ± 0.0071
RD-ES; 1.111 µM
  relative viability: 0.832 ± 0.032
RD-ES; 3.333 µM
  relative viability: 0.474 ± 0.032
RD-ES; 10 µM
  relative viability: 0.0093 ± 0.0018
KHOS-240S; 0.00017 µM
  relative viability: 1.08 ± 0.093
KHOS-240S; 0.00051 µM
  relative viability: 1.09 ± 0.071
KHOS-240S; 0.00152 µM
  relative viability: 1.09 ± 0.076
KHOS-240S; 0.00457 µM
  relative viability: 1.06 ± 0.073
KHOS-240S; 0.01372 µM
  relative viability: 1.06 ± 0.042
KHOS-240S; 0.04115 µM
  relative viability: 1.06 ± 0.038
KHOS-240S; 0.1235 µM
  relative viability: 1.08 ± 0.095
KHOS-240S; 0.3704 µM
  relative viability: 1.01 ± 0.084
KHOS-240S; 1.111 µM
  relative viability: 0.936 ± 0.023
KHOS-240S; 3.333 µM
  relative viability: 0.579 ± 0.042
KHOS-240S; 10 µM
  relative viability: 0.0145 ± 0.00055
SK-ES-1; 0.00017 µM
  relative viability: 1.04 ± 0.027
SK-ES-1; 0.00051 µM
  relative viability: 1.1 ± 0.057
SK-ES-1; 0.00152 µM
  relative viability: 1.04 ± 0.048
SK-ES-1; 0.00457 µM
  relative viability: 1.07 ± 0.025
SK-ES-1; 0.01372 µM
  relative viability: 1.07 ± 0.017
SK-ES-1; 0.04115 µM
  relative viability: 1.04 ± 0.049
SK-ES-1; 0.1235 µM
  relative viability: 1.02 ± 0.025
SK-ES-1; 0.3704 µM
  relative viability: 1.01 ± 0.034
SK-ES-1; 1.111 µM
  relative viability: 0.662 ± 0.059
SK-ES-1; 3.333 µM
  relative viability: 0.184 ± 0.02
SK-ES-1; 10 µM
  relative viability: 0.00867 ± 0.00081
SW872; 0.00017 µM
  relative viability: 1.1 ± 0.07
SW872; 0.00051 µM
  relative viability: 1.12 ± 0.072
SW872; 0.00152 µM
  relative viability: 1.1 ± 0.035
SW872; 0.00457 µM
  relative viability: 1.11 ± 0.071
SW872; 0.01372 µM
  relative viability: 1.11 ± 0.074
SW872; 0.04115 µM
  relative viability: 1.08 ± 0.096
SW872; 0.1235 µM
  relative viability: 1.05 ± 0.093
SW872; 0.3704 µM
  relative viability: 1.03 ± 0.045
SW872; 1.111 µM
  relative viability: 0.87 ± 0.09
SW872; 3.333 µM
  relative viability: 0.508 ± 0.096
SW872; 10 µM
  relative viability: 0.043 ± 0.018
